From US10844051B2, “Substituted oxazoles for the treatment of cancer” (THE ROYAL INSTITUTION FOR THE ADCANCEMENT OF …, priority 2015, dated 2020)
“Also recorded” adds a separate entry of the source.

How the values were obtained:
human GATA2 = target: T1, human GATA2 (Homo sapiens, UniProt P23769); assay: GATA2-dependent reporter assay in IHH cells; assay type: cell-based; conditions: GATA-Luc reporter, 48 h
T1 construct: expressed in transfected cells; host or cells: IHH
T1 sequence (P23769 1-480): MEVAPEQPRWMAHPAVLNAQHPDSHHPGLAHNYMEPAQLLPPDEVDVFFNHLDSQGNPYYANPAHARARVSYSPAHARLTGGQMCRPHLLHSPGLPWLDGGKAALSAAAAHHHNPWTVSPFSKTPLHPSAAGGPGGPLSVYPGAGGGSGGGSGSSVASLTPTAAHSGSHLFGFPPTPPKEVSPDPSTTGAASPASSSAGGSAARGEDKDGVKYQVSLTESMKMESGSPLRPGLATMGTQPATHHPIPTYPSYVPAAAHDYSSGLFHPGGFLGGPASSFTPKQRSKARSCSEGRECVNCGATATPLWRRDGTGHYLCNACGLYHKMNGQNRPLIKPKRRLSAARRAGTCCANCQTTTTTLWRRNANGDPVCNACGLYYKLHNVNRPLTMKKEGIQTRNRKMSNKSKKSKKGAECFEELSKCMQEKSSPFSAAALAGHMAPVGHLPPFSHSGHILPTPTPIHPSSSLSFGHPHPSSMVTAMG
Procedure: K7174 is a known GATA2 inhibitor. The IHH cells were transiently transfected with empty vector (for the NT) or human GATA2-expressing plasmid as well as pRL-TK (internal control) and GATA-Luc reporter plasmids. Cells were exposed to DMSO vehicle or compounds for 48 h. Experiments were in triplicate.

human GATA3 = target: T2, human GATA3 (Homo sapiens, UniProt P23771); assay: GATA3-dependent reporter assay in IHH cells; assay type: cell-based; conditions: 48 hours
T2 construct: expressed in transfected cells; host or cells: IHH
T2 sequence (P23771 whole entry): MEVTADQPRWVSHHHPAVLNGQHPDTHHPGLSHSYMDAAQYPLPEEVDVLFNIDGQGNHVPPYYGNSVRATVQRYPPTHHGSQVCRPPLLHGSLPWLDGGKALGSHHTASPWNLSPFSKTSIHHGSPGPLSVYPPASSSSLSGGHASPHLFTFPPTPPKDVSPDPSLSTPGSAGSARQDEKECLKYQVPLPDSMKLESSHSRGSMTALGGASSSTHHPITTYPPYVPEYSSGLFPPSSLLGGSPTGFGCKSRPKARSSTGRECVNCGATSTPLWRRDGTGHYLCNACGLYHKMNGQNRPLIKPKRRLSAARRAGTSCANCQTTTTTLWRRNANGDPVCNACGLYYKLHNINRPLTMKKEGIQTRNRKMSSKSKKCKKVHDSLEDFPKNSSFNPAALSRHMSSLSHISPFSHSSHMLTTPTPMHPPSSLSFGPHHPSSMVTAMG
Procedure: The IHH cells were transiently transfected with empty vector (for the NT) or human GATA3-expressing plasmid as well as pRL-TK (internal control) and GATA-Luc reporter plasmids. Cells were exposed to DMSO vehicle or compounds for 48 hours. Experiments were done in triplicate.

[1] = system: GATA family members (GATA1, GATA2, GATA3, GATA4); assay: GATA1-, GATA2-, GATA3- and GATA4-dependent reporter assays in IHH cells; assay type: cell-based; conditions: CSS medium, 48 hours
Procedure: In contrast, K7174 is not selective. GATA1-, GATA2-, GATA3- and GATA4-dependent reporter assays were done in IHH cells which were exposed to DMSO vehicle, compound 673 or K7174 (μM) in CSS medium for 48 hours.

[2] = target: T3, recombinant protein of human GATA2 (Homo sapiens, UniProt P23769); assay: SPR analysis on amine-coupled GATA2; assay type: binding
T3 sequence (P23769 1-480): T1 sequence (P23769 1-480)
From the text: In embodiments of the invention, the androgen-bound AR is regressing GATA2 expression and inhibition of AR via castration or use of antiandrogen releases such expression. […] Overexpression of GATA2 confers resistance to antiandrogen bicalutamide (Bic) (FIG. 2.9). Compound 673 is effective against the LNCaP stably transfected with GATA2-expressing plasmid (referred to as LNCaP-GATA2 cells) (FIG. 2.8).

[3] = system: androgen receptor (AR) signaling in C4-2B prostate cancer cells; assay: Western blot, AR signaling in C4-2B cells; assay type: cell-based
[4] = system: GATA2 expression in C4-2B cells; assay: Western blot, GATA2 expression in C4-2B cells; assay type: cell-based
[5] = system: A549 KRAS-mutant NSCLC cells; assay: MTT assay, A549; assay type: cell-based; conditions: 72 hours
Procedure: (§1) FIG. 2.7 Compound 673 is cytotoxic in KRAS-mutant NSCLC cells (A549 and H23), but is not toxic the KRAS wild-type NSCLC cells (H322). Cells were exposed to vehicle or compounds (μM) for 72 hours. Viable cells were evaluated by MTT assays.

[6] = system: H23 KRAS-mutant NSCLC cells; assay: MTT assay, H23; assay type: cell-based; conditions: KRAS-mutant NSCLC, 72 hours
Procedure: as §1
Panc 10.05, H23 and HCT-116 cells express endogenous KRAS 12D, 12C and 13D mutants, respectively. Cells were exposed to DMSO vehicle or compounds at designated doses for 72 hours. Experiments were done in triplicate.

[7] = system: H322 KRAS wild-type NSCLC cells; assay: MTT assay, H322; assay type: cell-based; conditions: 72 hours
Procedure: as §1

[8] = system: fusion protein IRF3DBD-GATA2NTD; assay: ISRE-luc reporter assay in PC3 cells, IRF3DBD-GATA2NTD; assay type: cell-based; conditions: 5 μM
wild-type IRF3 = target: T4, wild-type IRF3 (Homo sapiens, UniProt Q14653); assay: ISRE-luc reporter assay in PC3 cells, wild-type IRF3; assay type: cell-based; conditions: 5 μM
T4 construct: host or cells: PC3
T4 sequence (Q14653 whole entry, species assumed): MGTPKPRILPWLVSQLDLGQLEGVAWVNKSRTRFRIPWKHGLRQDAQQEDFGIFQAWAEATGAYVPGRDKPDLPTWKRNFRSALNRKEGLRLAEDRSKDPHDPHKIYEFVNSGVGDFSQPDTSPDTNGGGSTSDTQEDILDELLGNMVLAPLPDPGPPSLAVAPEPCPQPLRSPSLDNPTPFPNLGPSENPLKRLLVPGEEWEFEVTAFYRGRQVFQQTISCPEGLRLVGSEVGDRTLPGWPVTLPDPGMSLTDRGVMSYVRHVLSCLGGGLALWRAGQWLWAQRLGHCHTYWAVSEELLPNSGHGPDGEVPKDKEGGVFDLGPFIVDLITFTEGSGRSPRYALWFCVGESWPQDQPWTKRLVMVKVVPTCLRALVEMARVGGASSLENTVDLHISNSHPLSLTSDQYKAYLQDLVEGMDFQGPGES

[9] = system: AR signaling in LNCaP-GATA2, HP-LNCaP, C4-2B and 22Rv1 cells; assay: Western blot, AR signaling in LNCaP-GATA2 and CRPC cells; assay type: cell-based; conditions: LNCaP-GATA2 in FBS medium, 22Rv1 in CSS medium, 72 hours
Procedure: FIG. 2.11 By breaking AR-GATA2 feedback loop, compound 673 suppresses the AR signaling in CRPC cells. […] Cells were exposed to DMSO vehicle, BIC, 673 or K7174 at designated doses (μM) for 72 hours.

[10] = system: PSA-luc reporter in LNCaP-GATA2 cells; assay: PSA-luc reporter assay in LNCaP-GATA2 cells, combination with bicalutamide; assay type: cell-based; conditions: equi-molar combination, 72 hours, FBS medium
Procedure: (§2) (A) PSA-luc reporter assay in LNCaP-GATA2 cells, which were exposed to DMSO vehicle, BIC, 673, or equi-molar combination of Bic and 673 for 72 hours in FBS medium. RLU, relative luciferase unit; (B) BrdU Cell Proliferation Assay (Assay Kit #6813, Cell Signaling Tech.). LNCaP-GATA2 cells were exposed to DMSO vehicle, Bic, 673 or equi-molar combination of Bic and 673 for 48 hours. In the last 8 hours, 10 μM BrdU was added to the plate. **p<0.001, ***p<0.001 when compared with BIC at the same doses; #p<0.05, ##p<0.001 when compared with 673 at the same doses.

LNCaP-GATA2 cells = assay: BrdU cell proliferation assay in LNCaP-GATA2 cells, combination with bicalutamide; assay type: cell-based; conditions: equi-molar combination, 48 hours
Procedure: as §2

human STING (hSTING) = target: T5, human STING (hSTING) (Homo sapiens, UniProt Q86WV6); assay: hSTING ISRE-luc reporter assay in 293T cells; assay type: cell-based; conditions: 24 hours
T5 construct: expressed in transfected cells; host or cells: 293T
T5 sequence (Q86WV6 whole entry H232R): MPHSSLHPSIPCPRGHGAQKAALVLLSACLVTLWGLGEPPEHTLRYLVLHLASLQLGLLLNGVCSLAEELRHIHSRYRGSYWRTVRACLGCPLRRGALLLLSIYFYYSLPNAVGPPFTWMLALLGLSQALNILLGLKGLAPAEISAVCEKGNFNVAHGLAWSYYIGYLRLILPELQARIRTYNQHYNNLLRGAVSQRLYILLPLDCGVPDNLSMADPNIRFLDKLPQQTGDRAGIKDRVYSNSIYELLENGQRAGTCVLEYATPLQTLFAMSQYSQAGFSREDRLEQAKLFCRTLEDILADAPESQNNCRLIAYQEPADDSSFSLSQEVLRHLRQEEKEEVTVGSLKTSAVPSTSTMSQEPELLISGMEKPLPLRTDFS
Procedure: ISRE-luc (reporter), pRL-TK (internal control) and hSTING-expressing plasmids were transiently transfected into 293T cells. Cells were exposed to DMSO vehicle control or compounds for 24 hours. Experiments were done in triplicate.

ERG = target: T6, ERG (Homo sapiens, UniProt P11308); assay: ERG-dependent reporter assay in HEK293 cells; assay type: cell-based; set-up: expressed in transfected cells; host or cells: HEK293; conditions: PUx3-Luc reporter, 48 hours, designated doses
T6 sequence (P11308 1-486 isoform P11308-3): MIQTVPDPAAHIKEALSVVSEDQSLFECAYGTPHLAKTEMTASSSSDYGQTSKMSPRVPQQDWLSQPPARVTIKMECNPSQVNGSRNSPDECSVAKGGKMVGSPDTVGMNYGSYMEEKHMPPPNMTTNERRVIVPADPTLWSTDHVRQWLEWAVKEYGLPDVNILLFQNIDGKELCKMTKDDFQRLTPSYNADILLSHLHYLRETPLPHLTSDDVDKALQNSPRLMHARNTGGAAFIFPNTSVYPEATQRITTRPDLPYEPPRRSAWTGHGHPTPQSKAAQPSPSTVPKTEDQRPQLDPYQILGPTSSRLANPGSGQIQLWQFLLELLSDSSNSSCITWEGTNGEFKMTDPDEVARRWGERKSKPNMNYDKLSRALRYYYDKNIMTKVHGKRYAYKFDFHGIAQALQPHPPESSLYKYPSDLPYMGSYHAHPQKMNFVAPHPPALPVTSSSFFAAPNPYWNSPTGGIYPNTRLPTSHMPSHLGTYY
Procedure: HEK293 cells were transiently transfected with empty vector (for the NT) or ERG-expressing plasmid as well as pRL-TK (internal control) and PUx3-Luc reporter. Cells were then exposed to DMSO vehicle or compounds at designated doses for 48 hours. Experiments were done in triplicate.

GATA = conditions: read-out: IC50 in reporter assay; cited from earlier work

Structure (SMILES)	GATA2 inhibition in GATA2-dependent reporter assay (human GATA2)	activity against GATA3 in GATA3-dependent reporter assay (human GATA3; 10 μM)	activity against GATA3 in GATA3-dependent reporter assay (human GATA3; compounds at 5 μM)	selectivity for GATA2 among GATA family members [1]	dose-dependent binding to amine-coupled GATA2 (SPR) ([2]; 0-50 μM, 2-fold dilution series)	binding to amine-coupled GATA2 (SPR) ([2]; 50 μM each)	suppression of androgen receptor (AR) signaling (Western blot) [3]	inhibition of GATA2 expression (Western blot) [4]	cytotoxicity in A549 cells (MTT) [5]	cytotoxicity in H23 cells (MTT) [6]	cytotoxicity in H322 cells (MTT) [7]	activity against fusion protein IRF3DBD-GATA2NTD (ISRE-luc) [8]	activity against wild-type IRF3 (ISRE-luc) (wild-type IRF3)	suppression of AR signaling in LNCaP-GATA2 and CRPC cells (WB) [9]	effect of combination with bicalutamide (BIC) in PSA-luc reporter assay [10]	effect of combination with bicalutamide (BIC) in BrdU cell proliferation assay (LNCaP-GATA2 cells)	activation of hSTING in ISRE-luc reporter assay (human STING (hSTING))	ERG inhibition in ERG-dependent reporter assay (ERG)	IC50 (GATA)
Fc1cccc(-c2nc(CCCc3c[nH]c4ccccc34)oc2-c2cccc(F)c2)c1 [Compound 673]	GATA2 inhibitors	inactive against GATA3	inactive against GATA3	selectively inhibits GATA2	Specific and dose-dependent binding	Direct binding; also recorded: Specific binding	potently inhibits the AR signaling; also recorded: suppresses the androgen receptor (AR) signaling	inhibits GATA2 expression	cytotoxic	cytotoxic	not toxic	active	inactive	suppresses the AR signalling in CRPC cells; also recorded: effective in suppressing AR signaling	Synergistic effect	Synergistic effect	activate hSTING	ERG inhibitors	
COc1cc(/C=C/CCCN2CCCN(CCC/C=C/c3cc(OC)c(OC)c(OC)c3)CC2)cc(OC)c1OC [Compound K7174, K7174, reference compound]			active against GATA3	not selective															~15 µM
